The structures appear in SMILES notation. Counter-ions that a name gives are not always drawn. Like-named read-outs stand apart in the source and are kept apart here.

Data set [1] addresses α1-adrenoceptors (α1-ARs), rat cerebral cortex. The following applies: cited from earlier work.
Data set [2] deals with arterial blood pressure of normotensive Wistar rats. Put plainly: Influence on blood pressure in normotensive anesthetized rats after i.v. administration. The following applies: for Diastolic blood pressure / Systolic blood pressure: mean, n = 6. The data set is classed as in vivo, rat. An outline of the steps: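 Normotensive rats were given thiopental (75 mg/kg) intraperitoneally as anesthesia. A heparinized saline-filled polyethylene tube was placed in the left carotid artery, and blood pressure was recorded with a PowerLab Apparatus. Compounds dissolved in ethyl alcohol 5% − kolliphor 5% − water 90% were injected intravenously at 1 mL/kg after 20 min of stabilization. Pressures were compared by two-way ANOVA with Sidak's post-hoc test.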

Data set [3] has as its target α1-adrenoceptors (α1-ARs), rat cerebral cortex. Description: Radioligand binding assay with [3H]-prazosin, affinity for α1-ARs. The following applies: three independent experiments in duplicates, read-out: α1-adrenoceptor affinity Ki.
The target of data set [4] is T1, human adrenergic receptor α1B (Homo sapiens, UniProt P35368).
T1 sequence (P35368 1-520): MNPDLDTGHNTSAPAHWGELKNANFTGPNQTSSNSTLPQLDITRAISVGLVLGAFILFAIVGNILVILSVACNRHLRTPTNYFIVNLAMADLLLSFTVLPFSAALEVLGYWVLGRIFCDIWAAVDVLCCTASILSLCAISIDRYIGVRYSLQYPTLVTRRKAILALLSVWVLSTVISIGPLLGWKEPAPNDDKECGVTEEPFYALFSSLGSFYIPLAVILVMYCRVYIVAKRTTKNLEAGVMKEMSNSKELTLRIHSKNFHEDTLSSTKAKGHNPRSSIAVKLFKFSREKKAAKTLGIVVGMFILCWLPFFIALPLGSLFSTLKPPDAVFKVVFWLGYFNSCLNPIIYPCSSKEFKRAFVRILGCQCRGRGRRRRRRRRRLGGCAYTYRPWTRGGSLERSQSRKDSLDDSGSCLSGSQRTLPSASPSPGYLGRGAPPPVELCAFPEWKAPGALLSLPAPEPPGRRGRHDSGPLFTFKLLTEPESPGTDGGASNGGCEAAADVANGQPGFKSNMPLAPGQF
Put plainly: Intrinsic activity, aequorin luminescence functional assay at α1B-AR. The class given is cell-based. The following applies: for α1B-AR Profile: agonist/antagonist profile; for IC50: cells expressing aequorin and human α1B, against phenylephrine, means of three independent experiments in duplicates; for Selectivity Ratio α1A/α1B: selectivity for α1B-AR (IC50(α1A-AR)/IC50(α1B-AR)).

Data set [5] concerns the target T2, human adrenergic receptor α1A (Homo sapiens, UniProt P35348).
T2 sequence (P35348 1-466): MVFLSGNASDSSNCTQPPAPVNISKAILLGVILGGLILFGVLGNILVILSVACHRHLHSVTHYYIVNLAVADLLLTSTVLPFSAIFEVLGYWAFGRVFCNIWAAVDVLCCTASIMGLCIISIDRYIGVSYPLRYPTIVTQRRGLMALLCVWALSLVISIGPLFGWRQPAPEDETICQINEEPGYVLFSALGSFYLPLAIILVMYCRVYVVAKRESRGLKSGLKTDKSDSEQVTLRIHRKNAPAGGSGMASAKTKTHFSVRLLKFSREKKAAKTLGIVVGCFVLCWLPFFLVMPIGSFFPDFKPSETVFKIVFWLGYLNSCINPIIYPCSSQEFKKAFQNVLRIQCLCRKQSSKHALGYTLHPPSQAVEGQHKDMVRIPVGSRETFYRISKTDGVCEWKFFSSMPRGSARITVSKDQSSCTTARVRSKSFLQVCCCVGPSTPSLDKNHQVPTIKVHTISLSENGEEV
Description: Intrinsic activity, aequorin luminescence functional assay at α1A-AR. The class given is cell-based. To be noted: for α1A-AR Profile: agonist/antagonist profile; for IC50: cells expressing aequorin and human α1A, against phenylephrine, means of three independent experiments in duplicates; for Selectivity Ratio α1B/α1A: selectivity for α1A-AR (IC50(α1B-AR)/IC50(α1A-AR)).

The test system of the next data set is α1D- and α1A-AR subtype. Also noted: method as in PMID 21753885. To be noted: cited from earlier work.
Setting [6] is: published previously, read-out: α1-adrenoceptor affinity Ki.
Setting [7] is: 2.0 mg/kg i.v., 0 min (initial, before administration).
[8] abbreviates: i.v., normotensive anesthetized rats.
Where [9] appears, read: 1.0 mg/kg i.v., 0 min (initial, before administration).

Turning to `COc1cc2nc(N3CCN(C(=O)c4ccco4)CC3)nc(N)c2cc1OC` [Prazosin, prazosin hydrochloride], in data set [1] (setting [6]), the inhibition constant (Ki) (in general, the dissociation constant of the complex between target and ligand, obtained from inhibition or displacement) is 0.00024 µM.

On to `COc1ccccc1N1CCN(CCCCCN2C(=O)N(Cc3ccccc3)C(=O)C2(C)C)CC1` [PI], for which, in data set [1] (lead structure, Figure 2, read-out: α1R Ki), the Ki is 0.0426 µM.

Take `COc1ccccc1N1CCN(CC(O)CN2C(=O)N(Cc3ccc(Cl)cc3Cl)C(=O)C2(C)C)CC1.Cl` (centres unmarked) [Compound 13, 3-(2,4-dichlorobenzyl)-1-(2-hydroxy-3-(4-(2-methoxyphenyl)piperazin-1-yl)propyl)-5,5-dimethylimidazolidine-2,4-dione hydrochloride]: the melting point (as a rule, the temperature of the solid-liquid transition) is 144 to 146 °C. In addition, in data set [2] (setting [7]), the Diastolic blood pressure is recorded as 98.0 and the Systolic blood pressure is 130.7. In data set [2] (2.0 mg/kg i.v., 5 min), the Diastolic blood pressure turned out to be 61.2 and the Systolic blood pressure came to 102.8. Moreover, in data set [2] (2.0 mg/kg i.v., 10 min), the Diastolic blood pressure is 70.8 and the Systolic blood pressure came out at 107.7. In data set [2] (2.0 mg/kg i.v., 20 min), this molecule had a Diastolic blood pressure of 77.3 and a Systolic blood pressure of 109.3. Besides, in data set [2] (2.0 mg/kg i.v., 30 min), the Diastolic blood pressure stood at 82.2 and the Systolic blood pressure came out at 112.7. In data set [2] (2.0 mg/kg i.v., 40 min), this molecule had a Diastolic blood pressure of 82.8 and a Systolic blood pressure of 113.3. In addition, in data set [2] (2.0 mg/kg i.v., 50 min), the Diastolic blood pressure came to 82.2 and the Systolic blood pressure is on record as 117.2. In data set [2] (2.0 mg/kg i.v., 60 min), this molecule registered a Diastolic blood pressure of 83.7 and a Systolic blood pressure of 118.0. The “effect on systolic and diastolic blood pressure (in words)” value in data set [2] (setting [8]) is listed as “statistically significant reduction”. Further, the Ki in data set [3] was found to be 0.029 µM. In data set [4], the “α1B-AR Profile” value was “Antagonist”; the IC50 (as a rule, the concentration needed to halve the response being measured) amounted to 0.331 µM; the “Selectivity Ratio α1A/α1B” value was 0.42. Besides, in data set [5], the “α1A-AR Profile” value is given as “Antagonist”, the IC50 is 0.139 µM and the “Selectivity Ratio α1B/α1A” value was determined as 2.39. Further, the “selectivity for α1A-AR over α1B-AR” value in data set [5] (from IC50 ratio) is listed as ~ 2 fold.

Regarding `COc1ccccc1N1CCN(CC(O)COc2cccc3ccccc23)CC1` (centres unmarked) [naftopidil], the “higher affinity for α1D- than for α1A-AR subtype” value with α1D- and α1A-AR subtype was 3 fold.

Take `COc1ccccc1N1CCN(CCCNc2cc(=O)n(C)c(=O)n2C)CC1` [Urapidil, urapidil hydrochloride, reference compound]: in data set [1] (setting [6]), the inhibition constant Ki was 0.128 µM. The Diastolic blood pressure in data set [2] (setting [9]) stood at 93.0; in data set [2] (1.0 mg/kg i.v., 5 min), 77.5; in data set [2] (1.0 mg/kg i.v., 10 min), 75.5; in data set [2] (1.0 mg/kg i.v., 20 min), 76.0; in data set [2] (1.0 mg/kg i.v., 30 min) it was 78.8; in data set [2] (1.0 mg/kg i.v., 40 min), 79.2. Moreover, the Diastolic blood pressure in data set [2] (1.0 mg/kg i.v., 50 min) came to 80.8; in data set [2] (1.0 mg/kg i.v., 60 min) it was 81.2. Besides, the Systolic blood pressure in data set [2] (setting [9]) is recorded as 127.3; in data set [2] (1.0 mg/kg i.v., 5 min) it was 111.3; in data set [2] (1.0 mg/kg i.v., 10 min), 109.5; in data set [2] (1.0 mg/kg i.v., 20 min) it was 110.2; in data set [2] (1.0 mg/kg i.v., 30 min), 112.2; in data set [2] (1.0 mg/kg i.v., 40 min), 112.7. Further, the Systolic blood pressure in data set [2] (1.0 mg/kg i.v., 50 min) was 114.0; in data set [2] (1.0 mg/kg i.v., 60 min) it was 115.0. Moreover, the “lowest hypotensive (effective) dose” value in data set [2] (setting [8]) was determined as 1.0 mg/kg.

`COc1cccc(N2CCN(CC(O)CN3C(=O)N(Cc4ccc(Cl)cc4Cl)C(=O)C3(C)C)CC2)c1.Cl` (centres unmarked) [Compound 14, 3-(2,4-dichlorobenzyl)-1-(2-hydroxy-3-(4-(3-methoxyphenyl)piperazin-1-yl)propyl)-5,5-dimethylimidazolidine-2,4-dione hydrochloride] came in with a melting point of 177 to 179 °C. Moreover, in data set [2] (setting [7]), the Diastolic blood pressure stood at 100.8 and the Systolic blood pressure turned out to be 132.5. In data set [2] (2.0 mg/kg i.v., 5 min), this molecule came in with a Diastolic blood pressure of 100.3 and a Systolic blood pressure of 132.3. Further, in data set [2] (2.0 mg/kg i.v., 10 min), the Diastolic blood pressure was determined as 100.7 and the Systolic blood pressure is listed as 132.0. In data set [2] (2.0 mg/kg i.v., 20 min), the Diastolic blood pressure is listed as 96.0 and the Systolic blood pressure stood at 129.3. For the same molecule, in data set [2] (2.0 mg/kg i.v., 30 min), the Diastolic blood pressure is given as 96.0 and the Systolic blood pressure turned out to be 127.7. Moreover, in data set [2] (2.0 mg/kg i.v., 40 min), the Diastolic blood pressure is 97.3 and the Systolic blood pressure stood at 125.8. For the same molecule, in data set [2] (2.0 mg/kg i.v., 50 min), the Diastolic blood pressure came to 94.3 and the Systolic blood pressure is 124.5. In data set [2] (2.0 mg/kg i.v., 60 min), the Diastolic blood pressure was 92.0 and the Systolic blood pressure was determined as 124.3. For the same molecule, the Ki in data set [3] turned out to be 0.289 µM. Besides, in data set [4], the “α1B-AR Profile” value was “Antagonist”, the concentration for half-maximal inhibition (IC50) stood at 1.37 µM and the “Selectivity Ratio α1A/α1B” value turned out to be 0.89. Further, in data set [5], the “α1A-AR Profile” value is given as “Antagonist”, the IC50 is 1.22 µM and the “Selectivity Ratio α1B/α1A” value is listed as 1.12.

(Values after publication PMC10706087, “The Subtype Selectivity in Search of Potent Hypotensive Agents among 5,5-Dimethylhydantoin Derived α1-Adrenoceptors Antagonists” (International Journal of Molecular Sciences, 2023).)
